ChEMBL document CHEMBL5120837, “Synthesis and biological evaluation of conformationally restricted GluN2B ligands derived from eliprodil” (Eur J Med Chem, 2022)

Key:
[1] = target: T1, Sigma intracellular receptor 2 (Rattus norvegicus, UniProt Q5U3Y7); assay: Displacement of [3H]-DTG from sigma 2 receptor in rat liver membrane measured after 120 mins by microbeta counting analysis; assay type: cell membranes
T1 sequence (Q5U3Y7 whole entry): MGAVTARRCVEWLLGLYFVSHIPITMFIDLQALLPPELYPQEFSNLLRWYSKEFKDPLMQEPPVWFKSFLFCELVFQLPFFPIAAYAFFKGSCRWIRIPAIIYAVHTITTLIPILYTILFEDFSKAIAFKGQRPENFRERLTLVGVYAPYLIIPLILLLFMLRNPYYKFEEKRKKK

[2] = Displacement of [3H]ifenprodil from recombinant human GluN1A/GluN2B expressed in mouse L-M(TK-) cell membranes after 120 mins by microbeta scintillation counting method; parameters: species or system Membrane
[3] = target: Sigma non-opioid intracellular receptor 1 (Cavia porcellus, UniProt Q60492); assay: Displacement of [3H]-(+)-pentazocine from sigma1 receptor in guinea pig brain cortex membranes measured after 120 mins by scintillation counting method; assay type: cell membranes, Cerebral cortex, Membrane
[4] = tested on: Oocyte; assay: Antagonist activity at GluN1a/GluN2B NMDA receptor (unknown origin) expressed in Xenopus oocytes assessed as inhibition of glycine and (S)-glutamate-induced ion channel activation at 1 uM at -70 mV holding potential by two-electrode voltage clamp method relative to control; assay type: cell-based; details: Homo sapiens

Sigma non-opioid intracellular receptor 1, sequence (Q60492 whole entry): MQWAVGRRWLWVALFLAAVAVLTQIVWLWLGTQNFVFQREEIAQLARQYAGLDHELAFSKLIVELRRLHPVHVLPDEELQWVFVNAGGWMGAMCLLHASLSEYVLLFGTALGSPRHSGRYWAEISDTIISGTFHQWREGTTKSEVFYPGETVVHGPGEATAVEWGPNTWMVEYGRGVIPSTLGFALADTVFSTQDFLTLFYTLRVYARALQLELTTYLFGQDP

| SMILES | Ki [1] [nM] | Ki [2] [nM] | Ki [3] [nM] | inhibition [4] [%] |
| --- | --- | --- | --- | --- |
| O[C@H](CN1[C@@H]2CC[C@H]1C/C(=C\c1ccccc1)C2)c1ccccc1 | 12 | 1.8 | 0.8 | – |
| O[C@@H](CN1[C@@H]2CC[C@H]1C/C(=C/c1ccccc1)C2)c1ccc(F)cc1 | 47 | 29 | – | – |
| O[C@H](CN1[C@@H]2CC[C@H]1C[C@@H](Cc1ccc(F)cc1)C2)c1ccccc1 | 19 | 17 | 2.6 | 2.3 |
| O[C@@H](CN1[C@@H]2CC[C@H]1C/C(=C\c1ccc(F)cc1)C2)c1ccccc1 | – | 3 | – | 1.3 |
| O[C@@H](CN1[C@@H]2CC[C@H]1C/C(=C\c1ccc(F)cc1)C2)c1ccc(F)cc1 | 15 | 1 | 0.9 | – |
| O[C@@H](CN1[C@@H]2CC[C@H]1C/C(=C\c1ccccc1)C2)c1ccc(F)cc1 | 11 | 1.4 | – | – |
| C[C@H]([C@H](O)c1ccc(O)cc1)N1CCC(Cc2ccccc2)CC1 | – | 5.8 | – | – |
| O[C@@H](CN1[C@@H]2CC[C@H]1C/C(=C/c1ccc(F)cc1)C2)c1ccccc1 | – | 16 | – | -0.9 |
| O[C@H](CN1[C@@H]2CC[C@H]1C[C@H](Cc1ccccc1)C2)c1ccccc1 (mixture of isomers) | 11 | 2.4 | 1.9 | – |
| O[C@@H](CN1[C@@H]2CC[C@H]1C[C@@H](Cc1ccc(F)cc1)C2)c1ccc(F)cc1 | 5.9 | 0.8 | 1.2 | – |
| O[C@@H](CN1[C@@H]2CC[C@H]1C[C@H](Cc1ccccc1)C2)c1ccc(F)cc1 | 10 | 5.2 | 6.7 | – |
| O[C@@H](CN1[C@@H]2CC[C@H]1C[C@H](Cc1ccccc1)C2)c1ccccc1 | 14 | 21 | 7 | – |
| O[C@H](CN1[C@@H]2CC[C@H]1C[C@H](Cc1ccc(F)cc1)C2)c1ccccc1 | 11 | 1.9 | 2.1 | 3.1 |
| O[C@@H](CN1[C@@H]2CC[C@H]1C[C@H](Cc1ccc(F)cc1)C2)c1ccccc1 | 23 | 17 | 7 | 5.4 |
| O[C@H](CN1[C@@H]2CC[C@H]1C/C(=C/c1ccccc1)C2)c1ccccc1 | 27 | 21 | 11 | – |
| O[C@H](CN1[C@@H]2CC[C@H]1C/C(=C\c1ccc(Cl)cc1)C2)c1ccccc1 | 30 | 4.4 | 1.9 | – |
| O[C@@H](CN1[C@@H]2CC[C@H]1C[C@H](Cc1ccc(F)cc1)C2)c1ccc(F)cc1 | 15 | 5.9 | 25 | – |
| O[C@@H](CN1[C@@H]2CC[C@H]1C/C(=C/c1ccc(F)cc1)C2)c1ccc(F)cc1 | 21 | 7 | 28 | – |
| O[C@@H](CN1[C@@H]2CC[C@H]1C/C(=C\c1ccccc1)C2)c1ccccc1 | 6.6 | 1.1 | 0.3 | – |
| O[C@H](CN1[C@@H]2CC[C@H]1C/C(=C/c1ccc(F)cc1)C2)c1ccccc1 | 27 | 9.3 | 6.6 | 1.5 |
| O[C@H](CN1[C@@H]2CC[C@H]1C/C(=C/c1ccc(Cl)cc1)C2)c1ccccc1 | 47 | 20 | 9 | – |
| O[C@@H](CN1[C@@H]2CC[C@H]1C[C@@H](Cc1ccccc1)C2)c1ccccc1 | 9 | 2.1 | 1.3 | – |
| O[C@@H](CN1[C@@H]2CC[C@H]1C[C@@H](Cc1ccc(F)cc1)C2)c1ccccc1 | 22 | 0.7 | 0.9 | 8.7 |
| O[C@H](CN1[C@@H]2CC[C@H]1C/C(=C\c1ccc(F)cc1)C2)c1ccccc1 | 11 | 2.9 | 0.45 | 1.7 |
| O[C@H](CN1[C@@H]2CC[C@H]1C[C@@H](Cc1ccccc1)C2)c1ccccc1 | 10 | 15 | 4.5 | – |
| O[C@@H](CN1[C@@H]2CC[C@H]1C/C(=C/c1ccc(Cl)cc1)C2)c1ccccc1 | 22 | 13 | 18 | – |
| O[C@@H](CN1[C@@H]2CC[C@H]1C/C(=C/c1ccccc1)C2)c1ccccc1 | 101 | 34 | 6 | – |
| OC(CN1CCC(Cc2ccc(F)cc2)CC1)c1ccc(Cl)cc1 (stereo not drawn) [ELIPRODIL] | – | 13 | – | – |
| O[C@@H](CN1[C@@H]2CC[C@H]1C[C@@H](Cc1ccccc1)C2)c1ccc(F)cc1 | 6 | 1.7 | 0.7 | – |
| O[C@@H](CN1[C@@H]2CC[C@H]1C/C(=C\c1ccc(Cl)cc1)C2)c1ccccc1 | 15 | 4.4 | 2.7 | – |
